Here are results for two compounds from PMC11968394, “The effect of deuterated PLK1 inhibitor on its safety and efficacy in vivo” (Frontiers in Oncology, 2025).

Values joined by “and” are separate entries in the source; they are usually repeats but may differ in a detail not shown here. Identical values can stand only once.

For one data set, the system named is Panc04.03. Nature of the data set: Cell viability (CellTiter-Glo, 72 h), Panc04.03. In kind it is cell-based, Human. The following applies: Panc04.03, 72 hours; for IC50: Homo sapiens, Panc 04.03; for Bottom: dose-response curve bottom; for Top: dose-response curve top. As to the method: (§1) Human pancreatic cancer cell lines (PSN1, PANC-1, Panc 04.03, MIA PaCa-2, BxPC-3, and Capan-1) were cultured in their respective culture media. PSN1 cell lines were maintained in RPMI 1640 + 10%FBS. MIA PaCa-2 cells were cultured in DMEM+10%FBS+5% horse serum. Panc 04.03 cells were grown in RPMI 1640 + 15%FBS+10μg/mL Insulin. PANC-1 cells were maintained in DMEM+10%FBS. BxPC-3 cells were cultured in RPMI 1640 + 10%FBS. Capan-1 cells were grown in IMDM+20%FBS. All cells were incubated at 37°C in a humidified atmosphere containing 5% CO2.
(§2) For assays, cells in the logarithmic growth phase were harvested, seeded to different concentrations at 2,000-6,000 cells/well in 96-well plates. Following overnight incubation, test compounds were added at various concentrations and incubated for 72 hours. Cell viability was assessed by the ATP concentration using the CellTiter-Glo reagent (Promega, Madison, WI 53711 USA), and luminescence values were recorded by a Multilabel Reader (PerkinElmer, Waltham, MA, USA).
(In ATP-based viability assays light output follows the ATP content of the culture.)

Another data set concerns PANC-1. Put plainly: Cell viability (CellTiter-Glo, 72 h), PANC-1. The format is cell-based, Human. The following applies: PANC-1, 72 hours; for IC50: Homo sapiens; for Bottom: dose-response curve bottom; for Top: dose-response curve top. As for the experimental part: as §1, §2
The next data set has as its system BxPC-3. Nature of the data set: Cell viability (CellTiter-Glo, 72 h), BxPC-3. The following applies: BxPC-3, 72 hours; for Bottom: dose-response curve bottom; for Top: dose-response curve top; for IC50: Homo sapiens. In kind it is cell-based, Human. As for the experimental part:
as §1, §2

The subject of another data set is Capan-1. Put plainly: Cell viability (CellTiter-Glo, 72 h), Capan-1. In kind it is cell-based, Human. The following applies: Capan-1, 72 hours; for Bottom: dose-response curve bottom; for Top: dose-response curve top; for IC50: Homo sapiens. As for the experimental part: as §1, §2
Another data set deals with CK1δ (Homo sapiens, UniProt P48730). Nature of the data set: Kinase assay CK1δ. In kind it is biochemical. As to the method: (§3) Serial dilutions in DMSO were prepared. PLK1 was serially diluted 5-fold from 10 μM, yielding concentrations from 10000 nM to 0.00512 nM. Other targets were serially diluted 3-fold from 10 μM, yielding concentrations from 10000 nM to 0.5 nM. We have used two kinase assays: HTRF assay and ADG-Glo assay.
Chain of CK1δ (P48730 whole entry): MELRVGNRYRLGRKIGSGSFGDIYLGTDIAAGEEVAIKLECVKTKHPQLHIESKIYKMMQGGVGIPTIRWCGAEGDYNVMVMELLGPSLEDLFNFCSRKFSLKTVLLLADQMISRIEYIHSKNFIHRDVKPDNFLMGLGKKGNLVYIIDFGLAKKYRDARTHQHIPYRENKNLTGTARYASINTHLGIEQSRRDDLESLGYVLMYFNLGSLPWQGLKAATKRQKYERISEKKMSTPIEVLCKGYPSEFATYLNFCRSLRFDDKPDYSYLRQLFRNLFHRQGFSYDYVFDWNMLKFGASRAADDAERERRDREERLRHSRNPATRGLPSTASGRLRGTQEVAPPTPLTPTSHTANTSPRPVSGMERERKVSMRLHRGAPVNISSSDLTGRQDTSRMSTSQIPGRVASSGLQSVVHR
(§4) For HTRF Assay, 2× ATP/substrate solution and 2× kinase solution were prepared in kinase reaction buffer. Using an Echo 655, 50 nL of each diluted compound was transferred to a 384-well detection plate. The plate was centrifuged at 1000 rpm for 1 minute. 2.5 μL of 2× kinase solution was added to each well. The plate was incubated at 25°C for 10 minutes. 2.5 μL of 2× ATP/substrate solution was added to each well. The plate was centrifuged at 1000 rpm for 1 minute. The plate was incubated at 25°C for 40 minutes. 2× XL665 and antibody detection reagent were prepared in detection buffer. 5 μL of the prepared kinase detection reagent was added to each well. The plate was centrifuged at 1000 rpm for 1 minute. The plate was incubated at 25°C for 1 hour. Fluorescence signals at 620 nm (Cryptate) and 665 nm (XL665) were measured using a multifunction plate reader.
(§5) For ADP-Glo Assay, 2× ATP/substrate solution and 2× kinase solution were prepared in kinase reaction buffer. […] Luminescence signals were measured using a multifunction plate reader.

A further data set addresses CLK1 (Homo sapiens, UniProt P49759). Nature of the data set: Kinase assay CLK1. The format is biochemical. As to the method: as §3, §4, §5
In another data set the target is CLK4 (Homo sapiens, UniProt Q9HAZ1). Nature of the data set: Kinase assay CLK4. In kind it is biochemical. As to the method: as §3, §4, §5
Chain of CLK4 (Q9HAZ1 whole entry, species assumed): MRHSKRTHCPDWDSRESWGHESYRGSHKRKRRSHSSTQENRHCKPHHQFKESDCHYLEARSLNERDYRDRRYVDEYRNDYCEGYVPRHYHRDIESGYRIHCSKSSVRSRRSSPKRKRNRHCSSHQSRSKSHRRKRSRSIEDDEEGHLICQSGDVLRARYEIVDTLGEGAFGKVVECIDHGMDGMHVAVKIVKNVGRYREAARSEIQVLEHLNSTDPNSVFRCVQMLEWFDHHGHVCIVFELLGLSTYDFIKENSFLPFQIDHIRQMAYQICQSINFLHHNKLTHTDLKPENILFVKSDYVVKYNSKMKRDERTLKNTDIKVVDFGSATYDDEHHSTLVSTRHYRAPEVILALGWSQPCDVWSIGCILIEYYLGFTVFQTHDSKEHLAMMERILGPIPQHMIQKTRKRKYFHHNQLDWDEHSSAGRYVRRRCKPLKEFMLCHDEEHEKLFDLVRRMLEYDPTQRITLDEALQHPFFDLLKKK
The test system of data set [1] is p-TCTP, a direct substrate of PLK1. Nature of the data set: Pharmacodynamics: phospho-Ser46 TCTP in PSN-1 xenograft tumors (Western blot). In kind it is in vivo, M-NSG mice. The following applies: 2 hours after single oral dose (60, 30, 15 mg/kg). As to the method:
For in vivo PK/PD studies, a PSN1 tumor model was established in female M-NSG (NOD.Cg-Prkdc^scidIl2rg^em1Smoc ) mice, which are severely immunodeficient mice lacking the interleukin 2 receptor gamma chain on a NOD.Cg-Prkdc^scid background, at Shanghai Model Organisms (Shanghai, China). Briefly, 5 × 10^6 PSN1 cells were inoculated subcutaneously into each M-NSG mouse. Once the tumors reached approximately 500 mm³, compounds were administered orally at various dosages. For PK studies, blood samples were collected at 0, 0.25, 0.5, 1, 2, 6, and 24 hours post-dose. The sera from blood were then obtained and stored at -70°C. For PD studies, tumors were harvested 2 hours after dosing and stored at -70°C.The serum and tumor samples were then transported to PRECEDO (Hefei, Anhui, China) for further PK/PD studies.
For PD study, tumor tissues (~30 mg) were homogenized in 350 µL Lysis Buffer. After centrifugation, protein concentration in supernatants was determined by BCA assay. Samples were prepared for SDS-PAGE and run on 10% gels. Proteins were transferred to PVDF membranes, blocked, and incubated with anti-Phospho-TCTP (Ser46) Antibody (Cell Signaling Technology, Danvers, MA, USA) (1:1,000) overnight at 4°C. After washing, membranes were incubated with HRP-anti-Rabbit IgG (Cell Signaling Technology, Danvers, MA, USA) (1:3,000) for 1 hour, then treated with ECL reagents for imaging.
Background: A western blot detects proteins with antibodies after separation by electrophoresis.

Another data set concerns BxPC-3 CDX model. Nature of the data set: BxPC-3 CDX model. The format is in vivo, NOD SCID mouse. The following applies: for Mice died: NOD SCID, 60 mg/kg, 6 mice/group, 10 days. As to the method: These studies were performed at Yikon Medical (Beijing, China). Cancer cell line HCT 116 or BxPC-3 were cultured in 10% FBS RPMI-1640 medium plus penicillin, streptomycin, and glutamine at 37°C and 5% CO2 until reaching confluency. Cells were then prepared for inoculation. 5×10⁷ cells/mL cells in 100 µL were inoculated subcutaneously into the right flank of each female BALB/c nude mouse for HCT 116 cell line or female NOD SCID mouse for BxPC-3 cell line. When tumors reached 100-150 mm³, mice were divided into 4-5 groups (6-7 mice/group). […] Mice were dosed at least 10 days and were monitored for 30 days.
TGI was calculated as follows.

Chain of CLK1 (P49759 whole entry): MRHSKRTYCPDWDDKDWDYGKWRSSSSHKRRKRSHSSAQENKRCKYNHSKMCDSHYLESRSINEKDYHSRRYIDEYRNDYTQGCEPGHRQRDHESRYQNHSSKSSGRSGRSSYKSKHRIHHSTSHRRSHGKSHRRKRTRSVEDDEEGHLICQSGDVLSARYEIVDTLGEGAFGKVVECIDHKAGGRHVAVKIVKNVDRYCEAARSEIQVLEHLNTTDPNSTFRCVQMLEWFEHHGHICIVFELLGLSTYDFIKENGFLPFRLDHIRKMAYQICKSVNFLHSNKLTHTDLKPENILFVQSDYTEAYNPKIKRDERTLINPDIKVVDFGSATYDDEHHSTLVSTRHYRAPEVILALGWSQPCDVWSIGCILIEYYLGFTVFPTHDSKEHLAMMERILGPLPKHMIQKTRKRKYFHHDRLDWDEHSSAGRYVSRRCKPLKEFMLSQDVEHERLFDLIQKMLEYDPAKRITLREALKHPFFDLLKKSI

For the compound `CN1CCN(c2ccc(OC(F)(F)F)c(Nc3ncc4c(n3)-c3c(c(C(N)=O)nn3CCO)CC4)c2)CC1` [NMS-P937], the IC50 with Panc04.03 is 73 nM; with PANC-1, 142 nM; in the data set on BxPC-3, 64.9 nM; with Capan-1, 127 nM; at CK1δ it was 59.3 nM; at CLK1, 235 nM. Moreover, the midpoint of inhibition on CLK4, the IC50, lay at 278 nM. Moreover, the Bottom with Panc04.03 was -4; in the data set with PANC-1, -2.5; with BxPC-3, -2.8; in the data set with Capan-1, 2.5. Moreover, the Top in the data set on Panc04.03 was found to be 29.5; with PANC-1, 41.1; with BxPC-3, 53.5; in the data set on Capan-1, 56.5. Further, the “p-TCTP signal in tumors” value in data set [1] is reported as “reduced p-TCTP signal”. The Body weight result in the data set on BxPC-3 CDX model (NOD SCID mice) is “dramatically reduced body weight”. Further, the Mice died entry with BxPC-3 CDX model is reported as “two mice died”; with BxPC-3 CDX model (listed as NMP-P937, 60 mg/kg), 2/6.

On to `[2H]C1([2H])N(C)C([2H])([2H])C([2H])([2H])N(c2ccc(OC(F)(F)F)c(Nc3ncc4c(n3)-c3c(c(C(N)=O)nn3CCO)CC4)c2)C1([2H])[2H]` [PR00012], for which the concentration for half-maximal inhibition (IC50) is 83.8 nM with Panc04.03; 237 nM in the data set on PANC-1; 65.1 nM with BxPC-3; 115 nM in the data set with Capan-1; 51.8 nM against CK1δ; 196 nM against CLK1. On CLK4, this compound gave an IC50 of 231 nM. Moreover, the Bottom came to 10.8 in the data set with Panc04.03, 9.8 with PANC-1, 13.6 in the data set on BxPC-3 and 15.6 in the data set on Capan-1. The Top is listed as 42.5 with Panc04.03, 53.1 with PANC-1, 66.3 in the data set with BxPC-3 and 68.5 with Capan-1. In data set [1], the “p-TCTP signal in tumors” value is “reduced p-TCTP signal”. For the same compound, the Tumor growth result in the data set on BxPC-3 CDX model (NOD SCID mice) was “tumor growth inhibition in a dose-dependent manner”. Moreover, the Mice died result with BxPC-3 CDX model is “one mouse died and 1/6”.

One may read the IC50 as the concentration that gives 50% inhibition.
